Test results as given in ChEMBL document CHEMBL1155791, “A novel Syk family kinase inhibitor: design, synthesis, and structure-activity relationship of 1,2,4-triazolo[4,3-c]pyrimidine and 1,2,4-triazolo[1,5-c]pyrimidine derivatives” (Bioorg Med Chem, 2008).
≈ marks a conversion by molar mass, not a printed value. One block for each compound: values may come before it.

What was measured:
[1] = target: Tyrosine-protein kinase SYK (Homo sapiens, UniProt P43405)
PBMC = experiment: Suppression of IL2 production in human PBMC after 24 hrs by ELISA
Blood = experiment: Suppression of IL2 production in human whole blood after 24 hrs by ELISA
[2] = Aqueous solubility of the compound; assay type: physicochemical; settings: water
[3] = target: T1, Tyrosine-protein kinase ZAP-70 (Homo sapiens, UniProt P43403); experiment: Inhibition of human ZAP70
T1 sequence (P43403 whole entry): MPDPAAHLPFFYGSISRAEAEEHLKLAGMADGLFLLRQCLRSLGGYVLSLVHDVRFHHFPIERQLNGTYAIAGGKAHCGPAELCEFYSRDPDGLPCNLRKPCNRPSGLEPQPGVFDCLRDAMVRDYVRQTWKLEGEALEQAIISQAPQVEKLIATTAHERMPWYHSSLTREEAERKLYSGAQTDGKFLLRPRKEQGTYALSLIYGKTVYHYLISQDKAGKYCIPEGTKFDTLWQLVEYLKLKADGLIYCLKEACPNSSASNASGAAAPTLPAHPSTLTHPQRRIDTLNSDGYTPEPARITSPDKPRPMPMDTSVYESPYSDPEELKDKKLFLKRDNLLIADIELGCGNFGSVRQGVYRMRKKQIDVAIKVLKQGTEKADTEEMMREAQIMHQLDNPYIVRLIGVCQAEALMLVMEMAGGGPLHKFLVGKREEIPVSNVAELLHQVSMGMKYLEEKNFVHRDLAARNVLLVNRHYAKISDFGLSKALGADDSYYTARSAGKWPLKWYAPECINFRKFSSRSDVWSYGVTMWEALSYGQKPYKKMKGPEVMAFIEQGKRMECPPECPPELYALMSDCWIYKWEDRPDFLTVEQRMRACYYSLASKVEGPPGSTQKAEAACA

[4] = target: Tyrosine-protein kinase Lck (Homo sapiens, UniProt P06239)
[5] = target: Protein kinase C beta type (Homo sapiens, UniProt P05771)
Chain of Protein kinase C beta type (P05771 whole entry): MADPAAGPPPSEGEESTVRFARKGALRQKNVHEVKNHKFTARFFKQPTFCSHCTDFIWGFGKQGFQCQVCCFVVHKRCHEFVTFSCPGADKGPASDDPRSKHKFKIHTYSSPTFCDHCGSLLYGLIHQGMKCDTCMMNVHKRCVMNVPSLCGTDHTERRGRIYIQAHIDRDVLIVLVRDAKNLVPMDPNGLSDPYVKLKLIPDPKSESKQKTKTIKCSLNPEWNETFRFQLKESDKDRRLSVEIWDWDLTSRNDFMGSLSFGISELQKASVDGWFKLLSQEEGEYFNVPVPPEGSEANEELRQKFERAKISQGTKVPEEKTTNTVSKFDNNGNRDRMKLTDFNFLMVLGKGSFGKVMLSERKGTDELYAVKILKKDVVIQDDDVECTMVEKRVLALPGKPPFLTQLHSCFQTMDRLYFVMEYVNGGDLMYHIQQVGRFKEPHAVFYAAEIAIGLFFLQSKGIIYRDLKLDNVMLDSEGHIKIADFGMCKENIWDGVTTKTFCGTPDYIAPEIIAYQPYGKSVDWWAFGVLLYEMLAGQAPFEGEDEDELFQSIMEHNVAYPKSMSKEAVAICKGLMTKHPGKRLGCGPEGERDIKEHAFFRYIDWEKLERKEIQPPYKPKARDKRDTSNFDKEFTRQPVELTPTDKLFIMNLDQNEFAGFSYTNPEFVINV

Chain of Tyrosine-protein kinase Lck (P06239 whole entry): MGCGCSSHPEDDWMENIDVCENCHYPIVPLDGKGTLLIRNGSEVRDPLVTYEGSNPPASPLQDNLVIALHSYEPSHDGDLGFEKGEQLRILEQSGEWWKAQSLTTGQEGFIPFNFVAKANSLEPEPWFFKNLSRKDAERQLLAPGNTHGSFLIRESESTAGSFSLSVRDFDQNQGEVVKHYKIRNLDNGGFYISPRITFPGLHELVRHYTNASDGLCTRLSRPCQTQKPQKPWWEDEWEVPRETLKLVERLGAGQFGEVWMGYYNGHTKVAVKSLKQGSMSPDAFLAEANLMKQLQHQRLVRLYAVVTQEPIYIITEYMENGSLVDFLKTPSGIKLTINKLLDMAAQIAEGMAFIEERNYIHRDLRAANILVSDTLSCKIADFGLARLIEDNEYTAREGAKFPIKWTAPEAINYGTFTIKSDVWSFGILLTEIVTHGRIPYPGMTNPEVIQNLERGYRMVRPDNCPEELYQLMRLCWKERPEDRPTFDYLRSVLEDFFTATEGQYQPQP

IC50 [1]: 120 nM
SMILES: COc1cc(Nc2nc(N[C@H]3CCCC[C@H]3N)n3nc(-c4cccc(OC)c4)nc3c2C(N)=O)cc(OC)c1 (relative stereo)

IC50 [1]: 6100 nM
SMILES: COc1cc(Nc2nc(NCCO)n3cnnc3c2C(N)=O)cc(OC)c1

IC50 [1]: 50 nM
SMILES: COc1cc(Nc2nc(N[C@H]3CCCC[C@H]3N)n3nc(-c4ccccc4Cl)nc3c2C(N)=O)cc(OC)c1 (relative stereo)
IC50 (PBMC): 1760 nM

IC50 (Blood): 2000 nM
solubility [2]: 1.2 µg/mL (≈ 2.39 µM)
IC50 [1]: 83 nM
SMILES: COc1cc(Nc2nc(N[C@H]3CCCC[C@H]3N)n3nc(-c4ccccc4)nc3c2C(N)=O)cc(OC)c1 (relative stereo)
IC50 (PBMC): 210 nM

IC50 [1]: 7700 nM
SMILES: COc1cc(Nc2nc(NCCCN)n3cnnc3c2C(N)=O)cc(OC)c1

IC50 [1]: 15200 nM
SMILES: COc1cc(Nc2nc(N[C@H]3CCCC[C@H]3N)n3c(-c4ccccc4)nnc3c2C(N)=O)cc(OC)c1 (relative stereo)

SMILES: COc1cc(Nc2nc(N[C@H]3CCCC[C@H]3N)n3cnnc3c2C(N)=O)cc(OC)c1 (relative stereo)
solubility [2]: 351 µg/mL (≈ 823 µM)
IC50 [1]: 9 nM
IC50 [3]: 120 nM
IC50 [4]: 180 nM
IC50 [5]: 680 nM

IC50 [1]: 79100 nM
SMILES: COc1cc(Nc2nc(NCC(=O)OC(C)(C)C)n3cnnc3c2C(N)=O)cc(OC)c1

IC50 [1]: 9 nM
SMILES: COc1cc(Nc2nc(NCCN)n3cnnc3c2C(N)=O)cc(OC)c1

SMILES: COc1cc(Nc2nc(N[C@H]3CCCC[C@H]3N)n3ncnc3c2C(N)=O)cc(OC)c1 (relative stereo)
solubility [2]: 42 µg/mL (≈ 98.5 µM)
IC50 [1]: 4 nM
IC50 [3]: 330 nM
IC50 [4]: 590 nM
IC50 [5]: 2660 nM

IC50 [1]: 150 nM
SMILES: COc1cc(Nc2nc(NCC(C)(C)N)n3cnnc3c2C(N)=O)cc(OC)c1
